# Results as given in ChEMBL document CHEMBL1128893, “Synthesis and characterization of N-(acenaphth-5-yl)-N'-(4-methoxynaphth-1-yl)guanidine as a glutamate release inhibitor and potential anti-ischemic agent” (Bioorg Med Chem Lett, 1995).
# Key:
# [1] = molecular target: T1, Sodium channel protein type 2 subunit alpha (Homo sapiens, UniProt Q99250); test: (§1) Blockade of synaptosomal sodium channels, inhibition of [14C]guanidinium ion flux into CHO cells expressing Type II sodium channel
# [2] = molecular target: Sodium channel alpha subunits; brain (Types I, II, III) (Rattus norvegicus) (UniProt P04775+P04774+P08104); details: at 3 µM
# Description: Inhibition of veratridine-induced glutamate release, blockade of rat brain synaptosome voltage-gated sodium channels at 3 uM
# [3] = molecular target: T1, Sodium channel protein type 2 subunit alpha; test: as §1; assay type: functional, cell-based
# [4] = Inhibition of 45 [Ca2+] flux into rat brain synaptosomes depolarized by elevated potassium concentrations; assay type: functional, subcellular
# [5] = species: Rattus norvegicus; test: Compound was evaluated for the inhibition of K+ -evoked glutamate release through block of voltage-gated [Ca2+] -channels, in the rat brain synaptosomal preparations; assay type: functional, organism-based
# T1 sequence (Q99250 whole entry): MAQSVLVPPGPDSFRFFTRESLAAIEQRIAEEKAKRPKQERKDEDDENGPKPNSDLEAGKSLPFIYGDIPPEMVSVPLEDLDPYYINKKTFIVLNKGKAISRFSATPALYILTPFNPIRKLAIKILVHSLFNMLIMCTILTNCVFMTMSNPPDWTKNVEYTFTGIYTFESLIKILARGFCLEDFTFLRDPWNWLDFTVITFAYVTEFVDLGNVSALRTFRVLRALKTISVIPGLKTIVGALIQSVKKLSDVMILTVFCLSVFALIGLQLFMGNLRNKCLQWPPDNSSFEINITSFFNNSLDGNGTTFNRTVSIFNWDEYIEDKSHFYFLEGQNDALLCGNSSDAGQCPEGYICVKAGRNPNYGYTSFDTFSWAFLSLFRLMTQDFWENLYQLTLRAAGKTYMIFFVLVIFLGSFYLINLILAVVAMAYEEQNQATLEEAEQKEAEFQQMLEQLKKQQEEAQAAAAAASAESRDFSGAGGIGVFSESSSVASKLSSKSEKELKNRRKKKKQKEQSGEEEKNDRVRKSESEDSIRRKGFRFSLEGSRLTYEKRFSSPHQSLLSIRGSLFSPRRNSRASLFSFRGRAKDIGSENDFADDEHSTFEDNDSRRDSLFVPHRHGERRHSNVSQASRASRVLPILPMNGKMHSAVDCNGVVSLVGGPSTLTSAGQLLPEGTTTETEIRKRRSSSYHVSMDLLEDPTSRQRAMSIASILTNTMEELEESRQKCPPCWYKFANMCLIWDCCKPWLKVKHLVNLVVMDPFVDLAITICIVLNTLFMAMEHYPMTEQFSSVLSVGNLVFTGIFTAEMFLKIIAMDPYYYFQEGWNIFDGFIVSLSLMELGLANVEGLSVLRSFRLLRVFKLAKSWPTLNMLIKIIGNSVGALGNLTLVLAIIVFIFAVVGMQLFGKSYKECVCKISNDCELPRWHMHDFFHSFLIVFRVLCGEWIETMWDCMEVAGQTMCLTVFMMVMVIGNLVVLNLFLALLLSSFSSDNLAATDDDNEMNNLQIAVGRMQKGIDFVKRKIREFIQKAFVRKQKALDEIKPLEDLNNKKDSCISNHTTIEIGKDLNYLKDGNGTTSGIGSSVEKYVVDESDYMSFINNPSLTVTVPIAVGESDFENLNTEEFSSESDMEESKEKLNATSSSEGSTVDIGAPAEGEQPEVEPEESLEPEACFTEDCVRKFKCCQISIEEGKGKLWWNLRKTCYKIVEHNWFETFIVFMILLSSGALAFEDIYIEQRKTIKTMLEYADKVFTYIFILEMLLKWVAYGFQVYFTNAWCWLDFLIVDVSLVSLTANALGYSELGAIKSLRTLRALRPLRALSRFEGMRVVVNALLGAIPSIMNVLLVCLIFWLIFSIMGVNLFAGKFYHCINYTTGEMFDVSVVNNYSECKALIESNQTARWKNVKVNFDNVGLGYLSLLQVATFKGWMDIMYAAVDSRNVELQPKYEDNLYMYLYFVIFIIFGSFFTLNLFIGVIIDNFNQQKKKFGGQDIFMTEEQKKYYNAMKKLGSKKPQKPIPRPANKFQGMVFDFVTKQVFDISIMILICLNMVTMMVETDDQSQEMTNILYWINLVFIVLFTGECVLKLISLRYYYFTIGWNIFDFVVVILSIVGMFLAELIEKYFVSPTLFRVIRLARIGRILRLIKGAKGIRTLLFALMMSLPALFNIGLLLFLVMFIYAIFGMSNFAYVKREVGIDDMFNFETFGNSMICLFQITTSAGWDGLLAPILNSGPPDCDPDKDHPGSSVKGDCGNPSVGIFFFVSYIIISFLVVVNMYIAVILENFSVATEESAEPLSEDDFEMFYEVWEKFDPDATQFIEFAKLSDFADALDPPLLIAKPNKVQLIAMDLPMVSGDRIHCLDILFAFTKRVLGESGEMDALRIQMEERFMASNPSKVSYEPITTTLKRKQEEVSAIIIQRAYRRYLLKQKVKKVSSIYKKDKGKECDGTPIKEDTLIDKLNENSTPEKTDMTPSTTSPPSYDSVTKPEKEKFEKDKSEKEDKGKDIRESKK
SMILES,IC50 [1],Block [2],IC50 [3],IC50 [4],IC50 [5]
CN1CCN(c2ncc(-c3cc(Cl)cc(Cl)c3Cl)c(N)n2)CC1 [SIPATRIGINE],2550 nM,–,–,–,–
COc1ccc(/N=C(\N)Nc2ccc3c4c(cccc24)CC3)c2ccccc12,–,87%,1310 nM,2240 nM,1000 nM
Nc1nc2ccc(OC(F)(F)F)cc2s1 [RILUZOLE],–,49%,2200 nM,> 30000 nM,–
N=C(Nc1ccc2c3c(cccc13)CC2)Nc1ccc2c3c(cccc13)CC2,–,–,2030 nM,1130 nM,800 nM
